Converted amounts (≈) assume the structure as drawn.
These compounds were tested on A2780 (assay: Cytotoxicity against human A2780 cells).
Format: functional, cell-based

| Structure (SMILES) | IC50 |
| --- | --- |
| C=C(C)[C@@H]1CC[C@]2(C)CC[C@]3(C)[C@H](CC[C@@H]4[C@@]5(COC(C)=O)CC[C@H](OC(C)=O)C(C)(C)[C@@H]5CC[C@]43C)[C@@H]12 | 9.6 µg/mL (≈ 18.2 µM) |
| C=C(C)[C@@H]1CC[C@]2(C=O)CC[C@]3(C)[C@H](CC[C@@H]4[C@@]5(C)CC[C@@H](O)C(C)(C)[C@@H]5CC[C@]43C)[C@@H]12 | ≥ 20 µg/mL |
| C=C(C)[C@@H]1CC[C@]2(C)CC[C@]3(C)[C@H](C[C@@H](O)[C@@H]4[C@]56CC[C@H](OC5=O)C(C)(C)[C@@H]6CC[C@]43C)[C@@H]12 | 18 µg/mL (≈ 39.6 µM) |
| C=C(C)[C@@H]1CC[C@]2(C(=O)O)CC[C@]3(C)[C@H](CC[C@@H]4[C@@]5(C)CCCC(C)(C)[C@@H]5CC[C@]43C)[C@@H]12 | 17.4 µg/mL (≈ 39.5 µM) |
| C=C(C)[C@@H]1CC[C@]2(COC(C)=O)CC[C@]3(C)[C@H](CC[C@@H]4[C@@]5(C)CC[C@H](OC(C)=O)C(C)(C)[C@@H]5CC[C@]43C)[C@@H]12 [BETULIN DIACETATE] | ≥ 20 µg/mL |
| C=C(C)[C@@H]1CC[C@]2(C(=O)O)CC[C@]3(C)[C@H](CC[C@@H]4[C@@]5(C)CC[C@H](O)C(C)(C)[C@@H]5CC[C@]43C)[C@@H]12 [BETULINIC ACID] | ≥ 20 µg/mL |
| C=C(C)[C@@H]1CC[C@]2(C(=O)O)CC[C@]3(C)[C@H](CC[C@@H]4[C@@]5(C)CC[C@@H](O)C(C)(C)[C@@H]5CC[C@]43C)[C@@H]12 [EPIBETULINIC ACID] | ≥ 20 µg/mL |
| C=C(C)[C@@H]1CC[C@]2(C)CC[C@]3(C)[C@H](CC[C@@H]4[C@@]5(C)CC[C@H](OC(C)=O)C(C)(C)[C@@H]5CC[C@]43C)[C@@H]12 [LUPENYL ACETATE] | 16 µg/mL |
| C=C(C)[C@@H]1CC[C@]2(C)CC[C@]3(C)[C@H](CC[C@@H]4[C@@]5(C)CC[C@H](O)C(C)(C)[C@@H]5CC[C@]43C)[C@@H]12 [LUPEOL] | ≥ 20 µg/mL |
| CC1(C)CC[C@]2(C(=O)O)CC[C@]3(C)C(=CC[C@@H]4[C@@]5(C)CC[C@H](O)C(C)(C)[C@@H]5CC[C@]43C)[C@@H]2C1 [OLEANOLIC_ACID] | ≥ 20 µg/mL |
| C[C@H]1[C@H](C)CC[C@]2(C(=O)O)CC[C@]3(C)C(=CC[C@@H]4[C@@]5(C)CC[C@H](O)C(C)(C)[C@@H]5CC[C@]43C)[C@H]12 [URSOLIC ACID] | ≥ 20 µg/mL |

— ChEMBL document CHEMBL1150684, “New cytotoxic lupane triterpenoids from the twigs of Coussarea paniculata” (J Nat Prod, 2003)
